Assay results reported in US9204653B2, “5-fluoro pyrimidine derivatives” (DOW AGROSCIENCES LLC, priority 2008, dated 2015).
Where two headings read alike, the source gives them in different places.

System: Mycosphaerella graminicola; Anamorph: Septoria tritici; Bayer Code SEPTTR
Assay: Leaf blotch of wheat, foliar fungicide treatment, one day protectant (1DP) or three day curative (3DC)
Format: in vivo, Septoria tritici on wheat plants (variety Yuma)
Conditions: Zymoseptoria tritici; for pest or weed control at 50 ppm / pest or weed control at 200 ppm: % disease control rating
[1] = 24 h, one day protectant (1DP), 25 ppm (first 1DP column), percent control rating, read-out: SETTTR 1DP 25 ppm
[2] = 24 h, one day protectant (1DP), 25 ppm as printed (second 1DP column), percent control rating, read-out: SETTTR 1DP 25 ppm
[3] = 72 h, three day curative (3DC), 25 ppm, percent control rating, read-out: SEPTTR 3DC 25 ppm
[4] = 72 h, three day curative (3DC), percent control rating, read-out: SEPTTR 3DC 100 ppm
[5] = 24 h, one day protectant (1DP), 25 ppm, rating of percent disease control, read-out: SETTTR 1DP 25 ppm
[6] = 24 h, one day protectant (1DP), rating of percent disease control, read-out: SEPTTR 1DP 100 ppm
[7] = 72 h, three day curative (3DC), 25 ppm, rating of percent disease control, read-out: SEPTTR 3DC 25 ppm
[8] = 72 h, three day curative (3DC), rating of percent disease control, read-out: SEPTTR 3DC 100 ppm
[9] = 24 h, one day protectant (1DP), 25 ppm, percent disease control rating, read-out: SETTTR 1DP 25 ppm
[10] = 24 h, one day protectant (1DP), percent disease control rating, read-out: SEPTTR 1DP 100 ppm
[11] = 72 h, three day curative (3DC), 25 ppm, percent disease control rating, read-out: SEPTTR 3DC 25 ppm
[12] = 72 h, three day curative (3DC), percent disease control rating, read-out: SEPTTR 3DC 100 ppm
[13] = 24 h, one day protectant, 25 ppm, rating of percent disease control, read-out: SETTTR 1DP 25 ppm
[14] = 24 h, one day protectant, rating of percent disease control, read-out: SEPTTR 1DP 100 ppm
[15] = 72 h, three day curative, 25 ppm, rating of percent disease control, read-out: SEPTTR 3DC 25 ppm
[16] = 72 h, three day curative, rating of percent disease control, read-out: SEPTTR 3DC 100 ppm

Row | SMILES | pest or weed control at 25 ppm [5] | pest or weed control at 100 ppm [6] | pest or weed control at 25 ppm [7] | pest or weed control at 100 ppm [8] | other results
1 | COc1ncc(F)c(N/N=C(\C)c2ccc(F)cc2)n1 [Compound 1026] | – | – | – | – | pest or weed control at 25 ppm [1]: 26 to 50%; pest or weed control at 25 ppm [2]: 26 to 50%; pest or weed control at 25 ppm [3]: 0 to 25%; pest or weed control at 100 ppm [4]: 26 to 50%
2 | Nc1nc(OCc2cccc(OC(F)F)c2)ncc1F [Compound 368] | 76 to 100% | 76 to 100% | 76 to 100% | 76 to 100% | –
3 | N#Cc1cccc(COc2ncc(F)c(N)n2)c1 [Compound 33] | – | – | – | – | pest or weed control at 25 ppm [9]: 76 to 100%; pest or weed control at 100 ppm [10]: 76 to 100%; pest or weed control at 25 ppm [11]: 76 to 100%; pest or weed control at 100 ppm [12]: 76 to 100%
4 | COCCOC(=O)Nc1nc(OCc2cccc(F)c2)ncc1F [Compound 273] | 51 to 75% | 76 to 100% | 76 to 100% | 76 to 100% | –
5 | CCOC(=O)CCC(=O)NNc1nc(OCc2ccccc2)ncc1F [Compound 344] | 26 to 50% | 26 to 50% | 0 to 25% | 26 to 50% | –
6 | COc1cccc(COc2ncc(F)c(NOCc3ccccc3)n2)c1 [Compound 594] | – | – | – | – | pest or weed control at 25 ppm [13]: 0 to 25%; pest or weed control at 100 ppm [14]: 51 to 75%; pest or weed control at 25 ppm [15]: 0 to 25%; pest or weed control at 100 ppm [16]: 26 to 50%
7 | COc1ccc(OC)c(COc2ncc(F)c(N)n2)c1 [Compound 351] | 76 to 100% | 76 to 100% | 76 to 100% | 76 to 100% | –
8 | COc1c(F)cc(F)cc1COc1ncc(F)c(N)n1 [Compound 796] | 76 to 100% | 76 to 100% | 76 to 100% | 76 to 100% | –
9 | Cc1ccc(COc2ncc(F)c(NCCc3ccccc3)n2)cc1 [Compound 926] | – | – | – | – | pest or weed control at 50 ppm (24 h, one day protectant): 76 to 100%; pest or weed control at 200 ppm (24 h, one day protectant): 76 to 100%
10 | CN1CCCC/C1=N\c1nc(OCc2ccccc2)ncc1F [Compound 421] | 76 to 100% | 76 to 100% | 76 to 100% | 76 to 100% | –
11 | CCOc1cccc(COc2ncc(F)c(N)n2)c1 [Compound 66] | – | – | – | – | pest or weed control at 25 ppm [9]: 76 to 100%; pest or weed control at 100 ppm [10]: 76 to 100%; pest or weed control at 25 ppm [11]: 76 to 100%; pest or weed control at 100 ppm [12]: 76 to 100%
12 | COCCOC(=O)Nc1nc(OCc2ccc(C)cc2)ncc1F [Compound 419] | 76 to 100% | 76 to 100% | 76 to 100% | 76 to 100% | –
13 | CN(C)/C=N/c1nc(OCc2cccc(N)c2)ncc1F [Compound 303] | 26 to 50% | 76 to 100% | 51 to 75% | 76 to 100% | –
14 | COc1cccc(COc2ncc(F)c(NNc3ccccc3)n2)c1 [Compound 306] | 0 to 25% | 76 to 100% | 26 to 50% | 26 to 50% | –
15 | O=C(Nc1nc(OCc2ccc(F)cc2)ncc1F)C(F)F [Compound 501] | 76 to 100% | 76 to 100% | 76 to 100% | 76 to 100% | –
16 | C=CCOC(=O)Nc1nc(OCc2cccc(OC)c2)ncc1F [Compound 989] | – | – | – | – | pest or weed control at 25 ppm [1]: 76 to 100%; pest or weed control at 25 ppm [2]: 76 to 100%; pest or weed control at 25 ppm [3]: 51 to 75%; pest or weed control at 100 ppm [4]: 76 to 100%
17 | O=C(Nc1nc(OCc2cccs2)ncc1F)c1ccccc1 [Compound 759] | 51 to 75% | 76 to 100% | 26 to 50% | 76 to 100% | –
18 | CCCCCOC(=O)Nc1nc(OCc2cccc(F)c2)ncc1F [Compound 762] | 76 to 100% | 76 to 100% | 76 to 100% | 76 to 100% | –
19 | Cn1ccc(COc2ncc(F)c(NCO)n2)n1 [Compound 245] | 51 to 75% | 76 to 100% | 51 to 75% | 76 to 100% | –
20 | Nc1nc(OCc2cccc(Oc3ccccc3)c2)ncc1F [Compound 878] | – | – | – | – | pest or weed control at 50 ppm (24 h, one day protectant): 76 to 100%; pest or weed control at 200 ppm (24 h, one day protectant): 76 to 100%
21 | Cc1ccc(COc2ncc(F)c(N)n2)c(C)c1 [Compound 323] | 76 to 100% | 76 to 100% | 76 to 100% | 76 to 100% | –

Row | SMILES | pest or weed control at 25 ppm [5] | pest or weed control at 100 ppm [6] | pest or weed control at 25 ppm [7] | pest or weed control at 100 ppm [8] | other results
22 | Fc1cnc(OCc2ccccc2)nc1NNc1cccc(C(F)(F)F)c1 [Compound 1029] | – | – | – | – | pest or weed control at 25 ppm [1]: 0 to 25%; pest or weed control at 25 ppm [2]: 0 to 25%; pest or weed control at 25 ppm [3]: 0 to 25%; pest or weed control at 100 ppm [4]: 0 to 25%
23 | C=CCOc1ncc(F)c(NNc2ccc(Br)cc2)n1 [Compound 1078] | – | – | – | – | pest or weed control at 25 ppm [1]: 0 to 25%; pest or weed control at 25 ppm [2]: 0 to 25%; pest or weed control at 25 ppm [3]: 26 to 50%; pest or weed control at 100 ppm [4]: 0 to 25%
24 | C/C=C(C)/C=N/Nc1nc(OC)ncc1F [Compound 1033] | – | – | – | – | pest or weed control at 25 ppm [1]: 0 to 25%; pest or weed control at 25 ppm [2]: 0 to 25%; pest or weed control at 25 ppm [3]: 0 to 25%; pest or weed control at 100 ppm [4]: 26 to 50%
25 | COc1ncc(F)c(N/N=C(\C)c2cc3ccccc3o2)n1 [Compound 1019] | – | – | – | – | pest or weed control at 25 ppm [1]: 26 to 50%; pest or weed control at 25 ppm [2]: 26 to 50%; pest or weed control at 25 ppm [3]: 0 to 25%; pest or weed control at 100 ppm [4]: 0 to 25%
26 | Fc1ccccc1CNc1nc(OCc2ccco2)ncc1F [Compound 817] | – | – | – | – | pest or weed control at 50 ppm (24 h, one day protectant): 26 to 50%; pest or weed control at 200 ppm (24 h, one day protectant): 76 to 100%
27 | C/C(=N\Oc1ncc(F)c(/N=C/N(C)C)n1)c1ccccc1 [Compound 427] | 76 to 100% | 76 to 100% | 76 to 100% | 76 to 100% | –
28 | Nc1nc(OCC2Cc3ccccc3O2)ncc1F (stereo not drawn) [Compound 219] | 51 to 75% | 76 to 100% | 0 to 25% | 51 to 75% | –
29 | O=c1nc(NCc2ccccc2F)c(F)c[nH]1 [Compound 832] | – | – | – | – | pest or weed control at 50 ppm (24 h, one day protectant): 0 to 25%; pest or weed control at 200 ppm (24 h, one day protectant): 0 to 25%
30 | C/C(=N\Nc1nc(OCc2ccc(C)cc2)ncc1F)c1ccc(Cl)nc1 [Compound 301] | 26 to 50% | 26 to 50% | 51 to 75% | 76 to 100% | –
31 | Cc1ccc(COc2ncc(F)c(NCO)n2)cc1 [Compound 16, [5-Fluoro-2-(4-methylbenzyloxy)pyrimidin-4-ylamino]methanol] | – | – | – | – | pest or weed control at 25 ppm [9]: 76 to 100%; pest or weed control at 100 ppm [10]: 76 to 100%; pest or weed control at 25 ppm [11]: 76 to 100%; pest or weed control at 100 ppm [12]: 76 to 100%
32 | Nc1nc(OCc2ccncc2)ncc1F [Compound 856] | – | – | – | – | pest or weed control at 200 ppm (24 h, one day protectant): 76 to 100%
33 | Nc1nc(OCc2cc(C(F)(F)F)cc(C(F)(F)F)c2)ncc1F [Compound 139] | – | – | – | – | pest or weed control at 25 ppm [9]: 26 to 50%; pest or weed control at 100 ppm [10]: 51 to 75%; pest or weed control at 25 ppm [11]: 0 to 25%; pest or weed control at 100 ppm [12]: 26 to 50%
34 | CSCCOc1ncc(F)c(N)n1 [Compound 625] | – | – | – | – | pest or weed control at 25 ppm [13]: 0 to 25%; pest or weed control at 100 ppm [14]: 26 to 50%; pest or weed control at 25 ppm [15]: 0 to 25%; pest or weed control at 100 ppm [16]: 26 to 50%
35 | Cc1ccc(COc2ncc(F)c(NS(=O)(=O)c3c(Br)cnn3C)n2)cc1 [Compound 1027] | – | – | – | – | pest or weed control at 25 ppm [1]: 0 to 25%; pest or weed control at 25 ppm [2]: 0 to 25%; pest or weed control at 25 ppm [3]: 0 to 25%; pest or weed control at 100 ppm [4]: 0 to 25%
36 | COc1ccc(COc2ncc(F)c(N)n2)cc1C(F)(F)F [Compound 476] | 76 to 100% | 76 to 100% | 76 to 100% | 76 to 100% | –
37 | O=C(Cc1ccccc1)Nc1nc(OCc2cccs2)ncc1F [Compound 453] | 76 to 100% | 76 to 100% | 51 to 75% | 76 to 100% | –
38 | COc1cccc(COc2ncc(F)c(N(N)c3ccccc3)n2)c1 [Compound 367] | 0 to 25% | 0 to 25% | 0 to 25% | 0 to 25% | –
39 | CCOCCOc1cccc(COc2ncc(F)c(N)n2)c1 [Compound 752] | 76 to 100% | 76 to 100% | 76 to 100% | 76 to 100% | –
40 | Cc1c(F)c(F)c(COc2ncc(F)c(N)n2)c(F)c1F [Compound 500] | 76 to 100% | 76 to 100% | 76 to 100% | 76 to 100% | –
41 | CC[Si](CC)(CC)Nc1nc(OCc2cccs2)ncc1F [Compound 503] | 76 to 100% | 76 to 100% | 76 to 100% | 76 to 100% | –
